Like-named read-outs stand apart in the source and are kept apart here.
Columns and labels:
[1] = system: HT1080 (human fibrosarcoma cells); assay: MTT cancer cell growth inhibition; format: cell-based; settings: HT-1080, 72 h
Excerpt: (§1) 1. Experimental principles: the inhibition of cancer cell growth with compounds is detected by an MTT method. The principle of the MTT method is as follows: yellow thiazolyl blue may penetrate through cell membranes and enter into cells, succinate dehydrogenase in living cell mitochondria may reduce exogenous MTT into water-insoluble ianthinus acicular Formazan crystals which deposit in the cells, the crystals can be dissolved with dimethyl sulfoxide (DMSO), the optical density of the crystals is detected with an enzyme-linked immunometric meter at the wavelength of 490 nm/570 nm, and the number of cells can be indirectly reflected.
(§2) 2. Experimental materials: the used cancer cell lines are Hela (human cervical cancer cells), MCF-7 (human breast cancer cells), BGC-823 (human gastric cancer cells), A549 (human lung cancer cells), HT1080 (human fibrosarcoma cells), A431 (human epidermal squamous cell carcinoma cells), HUVEC (human umbilical vein endothelial cells), DU145 (human prostate cancer cells), K562 (human leukemia cells), U937 (human leukemia cells), Pac-1 (human pancreatic cancer cells), and MOLT-4 (human acute lymphoblastic leukemia cells), which are cultured with a DMEM+10% FBS culture medium or a 1640+10% FBS culture medium, respectively.
(§3) Experimental groups: 190 μl cell suspension+10 μl pharmaceuticals in different concentrations (the final concentration is 10^−5-10^−10M)
(§4) Negative control group: 190 μl cell suspension+10 μl 2% DMSO (the final concentration of DMSO is 0.1%)
(§5) a) Cells are inoculated on a 96-pore plate, with 1500 cells and 190 μl for each hole, and cultured overnight in a 5% CO2 incubator at 37.
(§6) b) 10 μl of different pharmaceuticals is added into each hole the next day, with the final concentration of the pharmaceuticals of 10^−5-10^−10M and three parallel holes, and incubated for 72 h in a 5% CO2 incubator at 37.
(§7) c) 20 μl of 5 mg/mL MTT is added into each hole, and incubated for 4 h in a 5% CO2 incubator at 37.
(§8) d) Supernatant is removed. 100 μl of DMSO is added into each hole and vibrated.
(§9) e) The reading is 570 nm. The cell survival rate is calculated.

[2] = system: U937 (human leukemia cells); assay: MTT cancer cell growth inhibition; format: cell-based; settings: U-937, 72 h
Excerpt: as §1, §2, §3, §4, §5, §6, §7, §8, §9

[3] = system: MOLT-4 (human acute lymphoblastic leukemia cells); assay: MTT cancer cell growth inhibition; format: cell-based; settings: 72 h
Excerpt: as §1, §2, §3, §4, §5, §6, §7, §8, §9

[4] = system: PANC-1; assay: MTT cancer cell growth inhibition; format: cell-based; settings: Homo sapiens, 72 h
Excerpt: as §1, §2, §3, §4, §5, §6, §7, §8, §9

[5] = system: DU145 (human prostate cancer cells); assay: MTT cancer cell growth inhibition; format: cell-based; settings: DU-145, 72 h
Excerpt: as §1, §2, §3, §4, §5, §6, §7, §8, §9

[6] = system: BGC-823 (human gastric cancer cells); assay: MTT cancer cell growth inhibition; format: cell-based; settings: 72 h, read-out: GI50 BGC823
Excerpt: as §1, §2, §3, §4, §5, §6, §7, §8, §9

[7] = system: A549 (human lung cancer cells); assay: MTT cancer cell growth inhibition; format: cell-based; settings: 72 h
Excerpt: as §1, §2, §3, §4, §5, §6, §7, §8, §9

[8] = system: MCF-7 (human breast cancer cells); assay: MTT cancer cell growth inhibition; format: cell-based; settings: MCF7, 72 h
Excerpt: as §1, §2, §3, §4, §5, §6, §7, §8, §9

[9] = system: Hela (human cervical cancer cells); assay: MTT cancer cell growth inhibition; format: cell-based; settings: 72 h
Excerpt: as §1, §2, §3, §4, §5, §6, §7, §8, §9

[10] = biological target: HDAC1 (Homo sapiens, UniProt Q13547); assay: Measurement of biochemical activities of HDAC (fluorescently-labeled acetylated lysine substrate)
Description: (§10) 1. Measurement principles: the measurement of biochemical activities of compounds is determined according to the degree of the compounds inhibiting the deacylation of HDAC enzyme. After the fluorescently-labeled substrate containing acetylated lysine side chain reacts with the HDAC enzyme, the fluorogenic substrate is deacetylated. After the deacetylated fluorescently-labeled substrate is cracked by the enzyme, a fluorescent substance is released. The fluorescent substance generates emitting light of 460 nm under the excitation of light of 360 nm.
(§11) 2. Detailed steps: the substrate of HDAC is diluted to […] (the reaction concentration is […]) with a reaction buffer. HDAC enzyme is diluted to a proper concentration. The compounds to be detected in different concentrations are added. The mixture reacts for 30 min at 37. Then the developer with the same volume and twice concentration of the substrate is added into the mixture. The mixture is incubated for 15 min at room temperature. Finally, the reading is measured with a micro plate scanner. The excitation light is 360 nm, the emitting light is 460 nm, and the data is processed with Prime 4 software.

[11] = biological target: T1, HDAC7 (Homo sapiens, UniProt Q8WUI4); assay: as above
T1 sequence (Q8WUI4 1-952): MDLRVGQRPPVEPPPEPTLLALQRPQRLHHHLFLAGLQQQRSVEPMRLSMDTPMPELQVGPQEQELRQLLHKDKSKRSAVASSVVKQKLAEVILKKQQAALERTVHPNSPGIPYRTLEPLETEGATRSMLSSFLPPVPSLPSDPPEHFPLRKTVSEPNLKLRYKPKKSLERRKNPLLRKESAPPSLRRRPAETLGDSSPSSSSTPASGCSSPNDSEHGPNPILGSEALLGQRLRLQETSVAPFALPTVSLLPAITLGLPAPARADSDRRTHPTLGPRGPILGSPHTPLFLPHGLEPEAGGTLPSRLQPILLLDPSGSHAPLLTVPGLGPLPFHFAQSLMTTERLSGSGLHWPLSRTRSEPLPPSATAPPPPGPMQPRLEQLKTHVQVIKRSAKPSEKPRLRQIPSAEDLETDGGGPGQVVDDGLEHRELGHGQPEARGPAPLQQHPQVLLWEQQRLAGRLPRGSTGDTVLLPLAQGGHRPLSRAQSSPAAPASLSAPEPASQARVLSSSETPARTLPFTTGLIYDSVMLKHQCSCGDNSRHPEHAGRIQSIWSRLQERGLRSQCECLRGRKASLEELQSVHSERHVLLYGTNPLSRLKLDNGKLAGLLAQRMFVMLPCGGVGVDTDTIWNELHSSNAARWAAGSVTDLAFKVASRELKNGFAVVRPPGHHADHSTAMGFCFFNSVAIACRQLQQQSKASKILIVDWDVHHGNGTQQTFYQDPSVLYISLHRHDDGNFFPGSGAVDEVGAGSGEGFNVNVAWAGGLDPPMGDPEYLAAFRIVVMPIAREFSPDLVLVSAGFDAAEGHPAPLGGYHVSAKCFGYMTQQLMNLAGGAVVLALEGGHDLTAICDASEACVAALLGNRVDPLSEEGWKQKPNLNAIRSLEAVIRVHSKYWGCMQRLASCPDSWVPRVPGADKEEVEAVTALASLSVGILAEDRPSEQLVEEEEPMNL
Description: as §10, §11

[12] = system: Incap; assay: MTT cancer cell growth inhibition; format: cell-based; settings: 72 h

Chain of HDAC1 (Q13547 whole entry, species assumed): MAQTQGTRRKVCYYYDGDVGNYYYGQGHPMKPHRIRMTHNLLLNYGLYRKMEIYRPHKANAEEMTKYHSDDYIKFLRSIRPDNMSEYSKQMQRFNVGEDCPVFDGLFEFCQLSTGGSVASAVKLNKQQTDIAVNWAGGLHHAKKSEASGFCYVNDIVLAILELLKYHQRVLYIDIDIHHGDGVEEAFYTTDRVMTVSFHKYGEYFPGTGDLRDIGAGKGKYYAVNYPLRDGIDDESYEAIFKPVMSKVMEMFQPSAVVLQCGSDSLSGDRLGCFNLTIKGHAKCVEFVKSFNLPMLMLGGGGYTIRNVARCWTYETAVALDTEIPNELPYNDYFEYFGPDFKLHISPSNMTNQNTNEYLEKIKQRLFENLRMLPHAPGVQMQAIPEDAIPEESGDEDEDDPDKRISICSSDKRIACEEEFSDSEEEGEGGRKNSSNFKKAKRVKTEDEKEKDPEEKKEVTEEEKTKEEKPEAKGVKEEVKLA

| Compound | GI50 [1] | GI50 [2] | GI50 [3] | GI50 [4] | GI50 [5] | GI50 [6] | GI50 [7] | GI50 [8] | GI50 [9] | IC50 ([10]; read-out: IC50 HDAC1) | IC50 HDAC7 [11] | GI50 [12] | IC50 [10] |
| --- | --- | --- | --- | --- | --- | --- | --- | --- | --- | --- | --- | --- | --- |
| C/C=C1\NC(=O)c2csc(n2)CNC(=O)C[C@@H](/C=C/CCSC(=O)CCCCCCC)OC(=O)[C@H](CC)NC1=O [Compound 1-2] | 0.1 µM | 0.004 µM | 0.03 µM | 0.2 µM | 0.004 µM | 0.02 µM | 0.3 µM | 0.05 µM | 0.1 µM | < 0.19 µM | no activity | 0.07 µM | – |
| C/C=C1\NC(=O)C2N=C(CNC(=O)C[C@@H](/C=C/CCSC(=O)CCCCCCC)OC(=O)[C@H](C(C)C)NC1=O)O[C@@H]2C (stereo partly drawn) [Compound 2-2] | 4.5 µM | 10.2 µM | 26.2 µM | 0.6 µM | 56.5 µM | 1.6 µM | 2 µM | 2.3 µM | 0.6 µM | < 10 µM | no activity | 23.6 µM | – |
| C/C=C1\NC(=O)c2csc(n2)[C@H](C)NC(=O)C[C@@H](/C=C/CCSC(=O)CCCCCCC)OC(=O)[C@H](C(C)C)NC1=O [Compound 4-2] | 0.03 µM | 5.01 µM | 2 µM | 1.03 µM | 4.02 µM | 2.12 µM | 25.1 µM | 0.15 µM | 1.23 µM | < 0.1 µM | no activity | 1.23 µM | – |
| C/C=C1\NC(=O)C2N=C(CNC(=O)C[C@@H](/C=C/CCSC(=O)CCCCCCC)OC(=O)[C@H](C(C)C)NC1=O)S[C@@H]2C (stereo partly drawn) [Compound 2-3] | 40.5 µM | 1.23 µM | 23.1 µM | 2.65 µM | 0.56 µM | 1.56 µM | 2.6 µM | 21.4 µM | 26.5 µM | < 10 µM | no activity | 0.5 µM | – |
| C/C=C1\NC(=O)c2csc(n2)CNC(=O)C[C@@H](/C=C/CCSC(=O)CCCCCCC)OC(=O)[C@@H](C)NC1=O [Compound 1-5] | 1 µM | 0.1 µM | 1 µM | 3 µM | 0.1 µM | 0.1 µM | 0.6 µM | 0.8 µM | 2 µM | < 10 µM | no activity | 0.6 µM | – |
| C/C=C1\NC(=O)c2csc(n2)CNC(=O)C[C@@H](/C=C/CCSC(=O)CCCCCCC)OC(=O)[C@H](CCSC)NC1=O [Compound 1-10] | 0.1 µM | 0.02 µM | 0.02 µM | 1.3 µM | 0.01 µM | 0.2 µM | 0.1 µM | 0.001 µM | 0.1 µM | < 0.1 µM | no activity | 0.08 µM | – |
| C/C=C1\NC(=O)c2csc(n2)CNC(=O)C[C@@H](/C=C/CCSC(=O)CCCCCCC)OC(=O)CNC1=O [Compound 1-1] | 0.05 µM | 0.007 µM | 0.009 µM | 0.3 µM | 0.008 µM | 0.1 µM | 0.09 µM | 0.09 µM | 0.4 µM | < 0.1 µM | no activity | 0.05 µM | – |
| C/C=C1\NC(=O)c2csc(n2)[C@H](C(C)C)NC(=O)C[C@@H](/C=C/CCSC(=O)CCCCCCC)OC(=O)[C@H](C(C)C)NC1=O [Compound 4-1] | 0.85 µM | 1.56 µM | 4.02 µM | 1.34 µM | 1.65 µM | 0.23 µM | 0.54 µM | 0.13 µM | 0.26 µM | – | no activity | 1.03 µM | < 10 µM |
| C/C=C1\NC(=O)c2csc(n2)CNC(=O)C[C@@H](/C=C/CCSC(=O)CCN)OC(=O)[C@H](C(C)C)NC1=O [Compound 6-6] | 4.16 µM | 1.29 µM | 56.4 µM | 1.65 µM | 0.3 µM | 0.065 µM | 0.001 µM | 0.952 µM | 0.86 µM | < 1 µM | no activity | 0.65 µM | – |
